Values of other authors as cited in patent US20070119380A1, “Additive Composition for Feeding Aquaculture Animals and Feed Containing the Same” (priority 2003, published 2007).

How the values were obtained:
mice = conditions: interperitoneal and oral administration
[1] = in whitefish flesh/muscle, fresh/wet sample

Compound | sub-lethal toxic effects (mice) | minimal amount (flavor threshold value) to produce a recognizable sensation [1] [ng/g]
Oc1c(Br)cc(Br)cc1Br [2,4,6-tribromophenol] | no sub-lethal toxic effects | 10
Oc1ccc(Br)cc1Br [2,4-dibromophenol] |  | 50
Oc1c(Br)cccc1Br [2,6-dibromophenol] |  | 0.1
Oc1ccccc1Br [2-bromophenol] | no sub-lethal toxic effects | 10
Oc1ccc(Br)cc1 [4-bromophenol] |  | 20
